The experiment addresses T1, NSD2 (Homo sapiens, UniProt O96028).
T1 sequence (O96028 1-1365): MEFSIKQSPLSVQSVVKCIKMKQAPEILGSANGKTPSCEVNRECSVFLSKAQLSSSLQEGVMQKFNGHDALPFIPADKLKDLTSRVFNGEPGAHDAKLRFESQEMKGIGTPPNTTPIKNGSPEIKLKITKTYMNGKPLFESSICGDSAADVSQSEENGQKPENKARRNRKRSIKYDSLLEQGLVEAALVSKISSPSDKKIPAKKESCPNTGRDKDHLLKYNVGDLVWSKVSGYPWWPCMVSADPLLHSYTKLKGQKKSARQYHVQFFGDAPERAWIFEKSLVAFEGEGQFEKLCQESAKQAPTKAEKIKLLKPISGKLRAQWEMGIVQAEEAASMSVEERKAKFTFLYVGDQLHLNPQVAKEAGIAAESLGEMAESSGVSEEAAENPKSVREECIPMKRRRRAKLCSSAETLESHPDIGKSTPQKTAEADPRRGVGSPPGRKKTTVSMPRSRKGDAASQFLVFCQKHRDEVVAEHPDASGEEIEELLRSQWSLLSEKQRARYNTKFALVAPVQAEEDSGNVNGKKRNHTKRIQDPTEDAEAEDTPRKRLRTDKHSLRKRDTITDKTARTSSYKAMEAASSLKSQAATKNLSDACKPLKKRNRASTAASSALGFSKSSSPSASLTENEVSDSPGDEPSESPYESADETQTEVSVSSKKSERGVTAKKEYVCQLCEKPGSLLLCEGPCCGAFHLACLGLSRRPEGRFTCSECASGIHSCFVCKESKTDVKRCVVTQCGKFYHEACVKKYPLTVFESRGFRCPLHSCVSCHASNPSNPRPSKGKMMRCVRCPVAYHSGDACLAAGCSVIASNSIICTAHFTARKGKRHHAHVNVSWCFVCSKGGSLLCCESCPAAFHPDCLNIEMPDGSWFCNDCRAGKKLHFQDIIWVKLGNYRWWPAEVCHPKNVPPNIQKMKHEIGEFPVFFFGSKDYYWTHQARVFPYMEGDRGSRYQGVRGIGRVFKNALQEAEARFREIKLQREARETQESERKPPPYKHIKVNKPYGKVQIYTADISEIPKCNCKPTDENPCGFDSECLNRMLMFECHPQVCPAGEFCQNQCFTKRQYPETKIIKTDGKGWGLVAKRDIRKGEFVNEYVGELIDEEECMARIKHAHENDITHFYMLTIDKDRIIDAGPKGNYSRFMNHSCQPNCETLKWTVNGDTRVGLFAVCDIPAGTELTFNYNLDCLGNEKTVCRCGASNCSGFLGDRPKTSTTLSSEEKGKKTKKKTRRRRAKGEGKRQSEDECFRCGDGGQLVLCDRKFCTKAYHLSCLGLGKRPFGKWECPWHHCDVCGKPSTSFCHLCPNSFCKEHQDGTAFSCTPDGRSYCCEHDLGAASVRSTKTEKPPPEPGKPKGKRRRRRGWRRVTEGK
Nature of the experiment: biochemical. More on the design: radiometric methyltransferase selectivity assay with tritiated SAM, per cent activity. The conditions noted are these: read-out: % of control remaining. As for the experimental part:
The methyltransferase selectivity was assessed at two compound concentrations of 1 and 10 μM by radiometric assays using tritiated-SAM. For methyltransferases: MLL1, MLL3, EZH1 (PRC2), and EZH2 (PRC2), G9a, GLP, SUV39H1, SUV39H2, SUV420H1, SUV420H2, SETD2, SETD8, SETDB1, SETD7, PRMT1, PRMT3, PRMT4, PRMT5/ MEP50 complex, PRMT6, PRMT7, PRMT8, PRMT9, PRDM9, SMYD2, SMYD3, DNMT1, and BCDIN3D the incorporation of a tritium-labeled methyl group into biotinylated substrate was monitored using scintillation proximity assay (SPA). Briefly, a 10 μL reaction containing ^3H-SAM and substrate at concentrations close to the apparent Km values for each enzyme (balanced conditions) was prepared. The reactions were quenched with 10 μL of 7.5 M guanidine hydrochloride; 180 μL of 20 mM Tris buffer (pH 8.0) were added, and the mixture was transferred to a 96-well FlashPlate and incubated for 1 h. The counts per minute (CPM) was measured on a TopCount plate reader. The CPM in the absence of compound or enzyme was defined as 100% activity and background (0%), respectively, for each dataset[74]–[76]. Selectivity of SGC8158 against 342 kinases was evaluated in a kinase panel TR-FRET assay at 1 and 0.1 μM compound in duplicates as described before. Briefly, tagged kinases were incubated with compound and staurosporine-based fluorescent probe where the binding was detected using Tb conjugated anti-tag antibody energy transfer to the probe. Excitation wavelength was 337 nm and fluorescent emission signal was measured for Tb (486 nm) and fluorescent probe (BODIPY, 515 nm). Specific and non-specific binding was determined in the absence and presence of unlabeled staurosporine.

Consider two molecules from paper PMC7224190, “Pharmacological inhibition of PRMT7 links arginine monomethylation to the cellular stress response” (Nature Communications, 2020).

Consider `CC1(C)O[C@@H]2[C@H](O1)[C@@H](CSCCCCNCc1cccc(-c3ccc(Cl)cc3)c1)O[C@H]2n1cnc2c(N)ncnc21` [SGC8158N], for which the remaining activity at 1 µM is 92% and the remaining activity at 10 µM is 97%.
`Nc1ncnc2c1ncn2[C@@H]1O[C@H](CSCCCCNCc2cccc(-c3ccc(Cl)cc3)c2)[C@@H](O)[C@H]1O` [SGC8158]: the remaining activity at 1 µM is 106% and the remaining activity at 10 µM was found to be 101%.
